Data published in US12358915B2, “METTL3 inhibitory compounds” (STORM THERAPEUTICS LTD., priority 2019, dated 2025).

What follows are compounds tested against T1, METTL3/14 (Homo sapiens, UniProt Q86U44) (assay: METTL3/14 methyltransferase assay (METTL3_14 RFMS, RapidFire mass spectrometry)). Settings: 5 nM METTL3/14, 0.2 μM RNA substrate, 0.5 μM SAM; lower limit of the assay IC50=5 nM; Compounds 1-62; read-out: METTL3_14 RFMS IC50.
T1 construct: The enzyme used was full-length his-tagged METTL3; His; made in house
Assay type: biochemical
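Further: recombinant His-tagged METTL3 with FLAG-tagged METTL14 from baculovirus, SAH product quantified by mass spectrometry against isotope-labelled internal standards, 60 min at room temperature, scaled between no-RNA and DMSO-only wells.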
Procedure: The enzyme used was full-length his-tagged METTL3 co-expressed with full length FLAG-tagged METTL14 in a baculovirus expression system. […] After termination, plates were sealed, centrifuged and stored at 4° C. until analysis. […] Mass Spectrometry Analysis RNA methyltransferase activity was measured label free using the RapidFireTM mass spectrometry (RF/MS) platform. Stopped and stable assay plates were analyzed on the Agilent RF300 integrated autosampler/solid-phase extraction (SPE) system coupled to an ABSciex 4000 mass spectrometer for the generation of the product S-adenosyl homocysteine (SAH) and normalized to the ratio of signal of the two internal product standards, respectively. Solvent A was water containing 0.1% (v/v) TCA. Solvent B was acetonitrile/0.1% ammonium acetate (8:2, v/v). More specifically, plates were centrifuged at 4350 rpm for 10 min, samples were aspirated under vacuum for 600 ms, then loaded onto a C18 solid-phase extraction cartridge and washed for 3 s with solvent A at a flow rate of 1.5 mL/min. Retained product and internal standards were eluted with solvent B at a flow rate of 1 mL/min for 3 s and finally the cartridge was reequilibrated with solvent A for 500 ms.

T1 sequence (Q86U44 whole entry): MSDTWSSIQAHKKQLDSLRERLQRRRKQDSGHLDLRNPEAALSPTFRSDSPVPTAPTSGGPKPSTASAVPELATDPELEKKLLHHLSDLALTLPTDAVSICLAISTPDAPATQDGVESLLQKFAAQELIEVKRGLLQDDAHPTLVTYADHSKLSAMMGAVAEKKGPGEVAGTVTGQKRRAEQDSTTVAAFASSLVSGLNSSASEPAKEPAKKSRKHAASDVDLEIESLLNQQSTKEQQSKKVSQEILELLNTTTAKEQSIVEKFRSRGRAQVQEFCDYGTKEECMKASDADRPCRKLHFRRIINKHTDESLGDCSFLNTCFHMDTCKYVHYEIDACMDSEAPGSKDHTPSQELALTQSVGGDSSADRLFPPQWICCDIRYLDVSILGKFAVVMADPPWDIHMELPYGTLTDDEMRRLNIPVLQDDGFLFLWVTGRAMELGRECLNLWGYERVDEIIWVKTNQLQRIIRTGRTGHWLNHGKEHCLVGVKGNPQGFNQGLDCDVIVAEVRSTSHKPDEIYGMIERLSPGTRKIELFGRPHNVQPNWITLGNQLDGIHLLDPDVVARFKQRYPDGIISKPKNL
T1 sequence (Q9HCE5 whole entry partner): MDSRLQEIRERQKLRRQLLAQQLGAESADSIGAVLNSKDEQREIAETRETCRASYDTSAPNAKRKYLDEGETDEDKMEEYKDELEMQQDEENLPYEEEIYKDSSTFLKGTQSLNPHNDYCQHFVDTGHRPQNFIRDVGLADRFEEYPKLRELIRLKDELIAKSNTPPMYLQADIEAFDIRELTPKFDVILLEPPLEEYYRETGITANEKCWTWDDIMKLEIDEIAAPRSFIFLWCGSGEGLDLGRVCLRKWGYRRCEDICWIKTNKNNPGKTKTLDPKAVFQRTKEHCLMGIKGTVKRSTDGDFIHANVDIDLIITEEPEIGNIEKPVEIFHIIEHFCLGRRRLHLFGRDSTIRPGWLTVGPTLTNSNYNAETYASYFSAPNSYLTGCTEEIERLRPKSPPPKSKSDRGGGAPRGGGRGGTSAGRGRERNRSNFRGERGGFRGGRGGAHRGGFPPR

IC50 [nM] | Structure (SMILES)
1040 | O=Cc1ccc2nc(CNC(=O)c3cc(=O)n4ccccc4n3)cn2c1 [Example 49, N-[(6-formylimidazo[1,2-a]pyridin-2-yl)methyl]-4-oxo-pyrido[1,2-a]pyrimidine-2-carboxamide]

Same assay, conditions: 5 nM METTL3/14, 0.2 μM RNA substrate, 0.5 μM SAM; lower limit of the assay IC50=5 nM; Compounds 63-265; read-out: METTL3_14 RFMS IC50

Structure (SMILES) | IC50 [nM]
C[C@H](NCc1ccc2nc(CNC(=O)c3cc(=O)n4ccccc4n3)cn2c1)C(C)(C)C [Compound 215, N-{[6-({[(2S)-3,3-dimethylbutan-2-yl]amino}methyl)imidazo[1,2-a]pyridin-2-yl]methyl}-4-oxo-4H-pyrido [1,2-a]pyrimidine-2-carboxamide] | 54.3
CC1(CNCc2ccc3nc(CNC(=O)c4cc(=O)c5ccccc5o4)cn3c2)CCCCC1 [Compound 222, N-{[6-({[(1-methylcyclohexyl)methyl]amino}methyl)imidazo [1,2-a]pyridin-2-yl]methyl}-4-oxo-4H-chromene-2-carboxamide] | 33.9
O=C(NCc1cn2ccc(CNCC3CC3)cc2n1)c1cc(=O)n2ccccc2n1 [Compound 224, N-[(7-{[(cyclopropylmethyl)amino]methyl}imidazo[1,2-a]pyridin-2-yl)methyl]-4-oxo-4H-pyrido[1,2-a]pyrimidine-2-carboxamide] | 1870
O=C(NCc1cn2cc(CNC(=O)C3CCCCC3)ccc2n1)c1cc(=O)n2ccccc2n1 [Compound 238, N-({6-[(cyclohexylformamido)methyl]imidazo[1,2-a]pyridin-2-yl}methyl)-4-oxo-4H-pyrido[1,2-a]pyrimidine-2-carboxamide] | 850
O=C(NCc1cn2cc(CNCC3CCCNC3)ccc2n1)c1cc(=O)n2ccccc2n1 (stereo not shown) [Compound 239, 4-oxo-N-{[6-({[(piperidin-3-yl)methyl]amino}methyl)imidazo[1,2-a]pyridin-2-yl]methyl}-4H-pyrido[1,2-a]pyrimidine-2-carboxamide] | 513
O=C(NCc1cn2cc(CNCC3CCCCN3)ccc2n1)c1cc(=O)n2ccccc2n1 (stereo not shown) [Compound 240, 4-oxo-N-{[6-({[(piperidin-2-yl)methyl]amino}methyl)imidazo[1,2-a]pyridin-2-yl]methyl}-4H-pyrido[1,2-a]pyrimidine-2-carboxamide] | 260
NC(Cc1ccccc1)Cc1ccc2nc(CNC(=O)c3cc(=O)n4ccccc4n3)cn2c1 (stereo not shown) [Compound 247, N-{[6-(2-amino-3-phenylpropyl)imidazo[1,2-a]pyridin-2-yl]methyl}-4-oxo-4H-pyrido[1,2-a]pyrimidine-2-carboxamide] | 1080

The next lines start with the values.

IC50 [nM] | Structure (SMILES)
247 | O=C(NCc1cn2cc(CN3CCCCC3)ccc2n1)c1cc(=O)c2ccccc2o1 [Compound 219, 4-oxo-N-({6-[(piperidin-1-yl)methyl]imidazo[1,2-a]pyridin-2-yl}methyl)-4H-chromene-2-carboxamide]
168 | O=C(NCc1cn2cc(CNCc3ccc(Cl)cc3)ccc2n1)c1cc(=O)c2ccccc2o1 [Compound 220, N-{[6-({[(4-chlorophenyl)methyl]amino}methyl)imidazo[1,2-a]pyridin-2-yl]methyl}-4-oxo-4H-chromene-2-carboxamide]
46.7 | O=C(NCc1cn2cc(CNCc3ccccc3)ccc2n1)c1cc(=O)c2ccccc2o1 [Compound 221, N-({6-[(benzylamino)methyl]imidazo[1,2-a]pyridin-2-yl}methyl)-4-oxo-4H-chromene-2-carboxamide]
2170 | O=C(NCc1cn2ccc(CNCC3CCCCC3)cc2n1)c1cc(=O)n2ccccc2n1 [Compound 223, N-[(7-{[(cyclohexylmethyl)amino]methyl}imidazo[1,2-a]pyridin-2-yl)methyl]-4-oxo-4H-pyrido[1,2-a]pyrimidine-2-carboxamide]
2110 | O=C(NCc1cn2cc(CNC3CNC3)ccc2n1)c1cc(=O)n2ccccc2n1 [Compound 241, N-[(6-{[(azetidin-3-yl)amino]methyl}imidazo[1,2-a]pyridin-2-yl)methyl]-4-oxo-4H-pyrido[1,2-a]pyrimidine-2-carboxamide]
735 | O=C(NCc1cn2cc(C3(NCC4CCCCC4)CC3)ccc2n1)c1cc(=O)n2ccccc2n1 [Compound 245, N-[(6-{1-[(cyclohexylmethyl)amino]cyclopropyl}imidazo[1,2-a]pyridin-2-yl)methyl]-4-oxo-4H-pyrido[1,2-a]pyrimidine-2-carboxamide]
50.6 | CC(C)(C)CNCc1ccc2nc(CNC(=O)c3cc(=O)c4ccccc4o3)cn2c1 [Compound 265, N-[(6-{[(2,2-dimethylpropyl)amino]methyl}imidazo[1,2-a]pyridin-2-yl)methyl]-4-oxo-4H-chromene-2-carboxamide]
7.9 | CC1(C)CCN(Cc2ccc3nc(Cn4cc(-c5cc(Br)cc6[nH]ncc56)nn4)cn3c2)CC1 [Example 227, 6-bromo-4-[1-({6-[(4,4-dimethylpiperidin-1-yl)methyl]imidazo[1,2-a]pyridin-2-yl}methyl)-1H-1,2,3-triazol-4-yl]-1H-indazole]
239 | CC(C)(C)[C@H]1COC[C@@H](c2ccc3nc(CNC(=O)c4cc(=O)n5ccccc5n4)cn3c2)N1 [Example 228, N-({6-[(3R,5S)-5-tert-butylmorpholin-3-yl]imidazo[1,2-a]pyridin-2-yl}methyl)-4-oxo-4H-pyrido[1,2-a]pyrimidine-2-carboxamide]
100 | CC(C)(C)[C@@H]1COC[C@H](c2ccc3nc(CNC(=O)c4cc(=O)n5ccccc5n4)cn3c2)N1 [Example 229, N-({6-[(3S,5R)-5-tert-butylmorpholin-3-yl]imidazo[1,2-a]pyridin-2-yl}methyl)-4-oxo-4H-pyrido[1,2-a]pyrimidine-2-carboxamide]
81.3 | O=C(NCc1cn2cc([C@H]3COC[C@@H](C4CCCCC4)N3)ccc2n1)c1cc(=O)n2ccccc2n1 [Example 230, N-({6-[(3S,5R)-5-cyclohexylmorpholin-3-yl]imidazo[1,2-a]pyridin-2-yl}methyl)-4-oxo-4H-pyrido[1,2-a]pyrimidine-2-carboxamide]
8370 | CC(C)(C)CN1CCOCC1c1ccc2nc(CNC(=O)c3cc(=O)n4ccccc4n3)cn2c1 (stereo not shown) [Example 232, N-({6-[4-(2,2-dimethylpropyl)morpholin-3-yl]imidazo[1,2-a]pyridin-2-yl}methyl)-4-oxo-4H-pyrido[1,2-a]pyrimidine-2-carboxamide]

Same assay, conditions: 5 nM METTL3/14, 0.2 μM RNA substrate, 0.5 μM SAM; lower limit of the assay IC50=5 nM; Compounds 266-351; read-out: METTL3_14 RFMS IC50

Structure (SMILES) | IC50 [nM]
O=C(NCc1cn2cc(CNCC3CC4(CCC4)C3)ccc2n1)c1cc(=O)n2ccccc2n1 [Compound 277, 4-oxo-N-[[6-[(spiro[3.3]heptan-2-ylmethylamino)methyl]imidazo[1,2-a]pyridin-2-yl]methyl]pyrido[1,2-a]pyrimidine-2-carboxamide] | 76.3
CCC(O)CNCc1ccc2nc(CNC(=O)c3cc(=O)n4ccccc4n3)cn2c1 (stereo not shown) [Compound 289, N-[[6-[(2-hydroxputylamino)methyl]imidazo[1,2-a]pyridin-2-yl]methyl]-4-oxo-pyrido[1,2-a]pyrimidine-2-carboxamide] | 103
O=C(NCc1cn2cc(CNCC3CC4C=CC3C4)ccc2n1)c1cc(=O)n2ccccc2n1 (stereo not shown) [Compound 346, N-[(6-{[({bicyclo[2.2.1]hept-5-en-2-yl}methyl)amino]methyl}imidazo[1,2-a]pyridin-2-yl)methyl]-4-oxo-4H-pyrido[1,2-a]pyrimidine-2-carboxamide] | 7.68
O=C(NCc1cn2cc(CNC[C@@H]3C[C@H]4CC[C@@H]3C4)ccc2n1)c1cc(=O)n2ccccc2n1 [Compound 347, N-({6-[({[(1R,2R,4S)-bicyclo[2.2.1]heptan-2-yl]methyl}amino)methyl]imidazo[1,2-a]pyridin-2-yl}methyl)-4-oxo-4H-pyrido[1,2-a]pyrimidine-2-carboxamide] | 7.5
O=C(NCc1cn2cc(CNC[C@H]3C[C@H]4CC[C@@H]3C4)ccc2n1)c1cc(=O)n2ccccc2n1 [Compound 348, N-({6-[({[(1R,2S,4S)-bicyclo[2.2.1]heptan-2-yl]methyl}amino)methyl]imidazo[1,2-a]pyridin-2-yl}methyl)-4-oxo-4H-pyrido[1,2-a]pyrimidine-2-carboxamide] | 9.02
O=C(NCc1cn2cc(CN3CC4CC3CO4)ccc2n1)c1cc(=O)n2ccccc2n1 (stereo not shown) [Compound 349, N-{[6-({2-oxa-5-azabicyclo[2.2.1]heptan-5-yl}methyl)imidazo[1,2-a]pyridin-2-yl]methyl}-4-oxo-4H-pyrido[1,2-a]pyrimidine-2-carboxamide] | 303
O=C(NCc1cn2cc(CN3CC4CCC3C4)ccc2n1)c1cc(=O)n2ccccc2n1 (stereo not shown) [Compound 350, N-{[6-({2-azabicyclo[2.2.1]heptan-2-yl}methyl)imidazo[1,2-a]pyridin-2-yl]methyl}-4-oxo-4H-pyrido[1,2-a]pyrimidine-2-carboxamide] | 56.2

Continued, values first:

IC50 [nM] | Structure (SMILES)
1240 | CC(C)(C#N)CNCc1ccc2nc(CNC(=O)c3cc(=O)n4ccccc4n3)cn2c1 [Compound 275, N-[[6-[[(2-cyano-2-methyl-propyl)amino]methyl]imidazo[1,2-a]pyridin-2-yl]methyl]-4-oxo-pyrido[1,2-a]pyrimidine-2-carboxamide]
62.2 | CC1(C)CC(CNCc2ccc3nc(CNC(=O)c4cc(=O)n5ccccc5n4)cn3c2)C1 [Compound 291, N-[[6-[[(3,3-dimethylcyclobutyl)methylamino]methyl]imidazo[1,2-a]pyridin-2-yl]methyl]-4-oxo-pyrido[1,2-a]pyrimidine-2-carboxamide]
24.1 | O=C(NCc1cn2cc(CN3CC4CCC3CC4)ccc2n1)c1cc(=O)n2ccccc2n1 [Compound 351, N-{[6-({2-azabicyclo[2.2.2]octan-2-yl}methyl)imidazo[1,2-a]pyridin-2-yl]methyl}-4-oxo-4H-pyrido[1,2-a]pyrimidine-2-carboxamide]

Same assay, conditions: read-out: METTL3_14 RFMS IC50

IC50 [nM] | Structure (SMILES)
1450 | O=C(NCc1cn2ccc(CNCCc3ccccc3)cc2n1)c1cc(=O)n2ccccc2n1 [Compound 243, 4-oxo-N-[(7-{[(2-phenylethyl)amino]methyl}imidazo[1,2-a]pyridin-2-yl)methyl]-4H-pyrido[1,2-a]pyrimidine-2-carboxamide]
